Results as given in PubChem BioAssay (NCI).
Several values for one entry are separate records, joined by “and”; a condition that tells them apart may be missing. Equal entries are not always repeated.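 How tested: cells in 96-well plates exposed to compound for 48 hours at five concentrations. GI50 is the concentration that inhibits growth by half. TGI is the concentration that stops growth completely.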

Experiments:
Test in all cases: NCI tumour cell line growth inhibition, 48 h
UACC-257 melanoma = system: UACC-257 melanoma
T-47D breast = system: T-47D breast
K-562 leukemia = system: K-562 leukemia
HOP-92 NSCLC = system: HOP-92 NSCLC
SNB-19 CNS = system: SNB-19 CNS
SK-OV-3 ovarian = system: SK-OV-3 ovarian
UO-31 renal = system: UO-31 renal
PC-3 prostate = system: PC-3 prostate
ACHN renal = system: ACHN renal
NCI-H522 lung = system: NCI-H522 lung

Oc1ccc(CN2CCC(N3CCCCC3)CC2)c2cccnc12
GI50 (UACC-257 melanoma): 27.6 µM
TGI (UACC-257 melanoma): 99.3 µM
GI50 (T-47D breast): 23.6 µM
TGI (T-47D breast): > 100 µM
GI50 (K-562 leukemia): 2.23 µM
TGI (K-562 leukemia): > 100 µM
GI50 (HOP-92 NSCLC): 4.51 µM
TGI (HOP-92 NSCLC): > 100 µM
GI50 (SNB-19 CNS): 21.6 µM
TGI (SNB-19 CNS): > 100 µM
GI50 (SK-OV-3 ovarian): 24.8 µM
TGI (SK-OV-3 ovarian): > 100 µM
GI50 (UO-31 renal): 6.2 µM
TGI (UO-31 renal): 34.6 µM
GI50 (PC-3 prostate): 7.15 µM
TGI (PC-3 prostate): > 100 µM
GI50 (ACHN renal): 5.95 µM
TGI (ACHN renal): > 100 µM
GI50 (NCI-H522 lung): 3.43 µM
TGI (NCI-H522 lung): 43.9 µM

OCc1c[nH]c2ccccc12
GI50 (UACC-257 melanoma): 22.9 µM
TGI (UACC-257 melanoma): 74 µM
GI50 (T-47D breast): 16 µM
TGI (T-47D breast): > 100 µM
GI50 (K-562 leukemia): 33.8 µM
TGI (K-562 leukemia): > 100 µM
GI50 (HOP-92 NSCLC): 9.35 µM
TGI (HOP-92 NSCLC): 63.5 µM
GI50 (SNB-19 CNS): 33 µM
TGI (SNB-19 CNS): > 100 µM
GI50 (SK-OV-3 ovarian): 26.3 µM
TGI (SK-OV-3 ovarian): 98.9 µM
GI50 (UO-31 renal): 6.29 µM
TGI (UO-31 renal): 50.9 µM
GI50 (PC-3 prostate): 15.5 µM
TGI (PC-3 prostate): 45.3 µM
GI50 (ACHN renal): 24.4 µM
TGI (ACHN renal): 86.4 µM
GI50 (NCI-H522 lung): 16.7 µM
TGI (NCI-H522 lung): 37.1 µM

C=C1C(=O)O[C@H]2[C@H]1CC/C(Cn1cc(-c3ccc(OC)cc3)nn1)=C\CC[C@@]1(C)O[C@@H]21
GI50 (UACC-257 melanoma): 1.78 µM
TGI (UACC-257 melanoma): 3.85 µM
GI50 (T-47D breast): 1.43 µM
TGI (T-47D breast): 3.08 µM
GI50 (K-562 leukemia): 1.3 µM
TGI (K-562 leukemia): 6.87 µM
GI50 (HOP-92 NSCLC): 1.13 µM
TGI (HOP-92 NSCLC): 2.69 µM
GI50 (SNB-19 CNS): 6.92 µM
TGI (SNB-19 CNS): 21.4 µM
GI50 (SK-OV-3 ovarian): 16.3 µM
TGI (SK-OV-3 ovarian): 29.9 µM
GI50 (UO-31 renal): 1.27 µM
TGI (UO-31 renal): 2.64 µM
GI50 (PC-3 prostate): 9.35 µM
TGI (PC-3 prostate): 22.2 µM
GI50 (ACHN renal): 0.293 µM
TGI (ACHN renal): 1.12 µM
GI50 (NCI-H522 lung): 0.387 µM
TGI (NCI-H522 lung): 1.73 µM

O=C(N/N=C/c1ccccc1O)c1ccccc1Nc1ccnc(C(F)(F)F)c1
GI50 (UACC-257 melanoma): 0.396 µM
GI50 (T-47D breast): 1.07 µM
TGI (T-47D breast): > 78.4 µM
GI50 (K-562 leukemia): 0.53 µM
TGI (K-562 leukemia): > 100 µM
GI50 (HOP-92 NSCLC): 0.388 µM
TGI (HOP-92 NSCLC): 10.9 µM
GI50 (SNB-19 CNS): 1.77 µM
TGI (SNB-19 CNS): > 100 µM
GI50 (SK-OV-3 ovarian): 0.649 µM
TGI (SK-OV-3 ovarian): 38 µM
GI50 (UO-31 renal): 0.291 µM
TGI (UO-31 renal): 3.12 µM
GI50 (PC-3 prostate): 0.295 µM
TGI (PC-3 prostate): 10.1 µM
GI50 (ACHN renal): 0.342 µM
TGI (ACHN renal): > 63.5 µM
GI50 (NCI-H522 lung): 5.74 µM
TGI (NCI-H522 lung): > 58.9 µM

CCOc1cc2c(Cl)ncnc2c(OCC)c1OCC
GI50 (UACC-257 melanoma): 6.95 µM
TGI (UACC-257 melanoma): 22 µM
GI50 (T-47D breast): 6.11 µM
TGI (T-47D breast): 22.8 µM
GI50 (K-562 leukemia): 2.72 µM
TGI (K-562 leukemia): 12.5 µM
GI50 (HOP-92 NSCLC): 3.67 µM
TGI (HOP-92 NSCLC): 14.2 µM
GI50 (SNB-19 CNS): 8.8 µM
TGI (SNB-19 CNS): 21.4 µM
GI50 (SK-OV-3 ovarian): 16.5 µM
TGI (SK-OV-3 ovarian): 30.5 µM
GI50 (UO-31 renal): 8.45 µM
TGI (UO-31 renal): 23.6 µM
GI50 (PC-3 prostate): 3.2 µM
TGI (PC-3 prostate): 11.4 µM
GI50 (ACHN renal): 14.1 µM
TGI (ACHN renal): 27.1 µM
GI50 (NCI-H522 lung): 9.67 µM
TGI (NCI-H522 lung): 23.5 µM

O/N=C/C1c2ccccc2-c2ccccc21
TGI (UACC-257 melanoma): 34 µM
TGI (T-47D breast): 56.3 µM
TGI (K-562 leukemia): 67.3 µM
TGI (HOP-92 NSCLC): 28 µM
TGI (SNB-19 CNS): 38.6 µM
TGI (SK-OV-3 ovarian): 36.2 µM
TGI (UO-31 renal): 32.4 µM
TGI (PC-3 prostate): 36.9 µM
TGI (ACHN renal): 32.2 µM
TGI (NCI-H522 lung): 33.4 µM

CCN(CC)CCOc1ccc(/C(=C(\Cl)c2ccccc2)c2ccccc2)cc1
GI50 (UACC-257 melanoma): 0.989 µM and 1.97 µM
TGI (UACC-257 melanoma): 2.09 µM and 4.04 µM
GI50 (T-47D breast): 1.51 µM and 1.73 µM
TGI (T-47D breast): 9.55 µM and 12.9 µM
GI50 (K-562 leukemia): 1.55 µM
TGI (K-562 leukemia): 11.5 µM
GI50 (HOP-92 NSCLC): 1.58 µM
TGI (HOP-92 NSCLC): 5.4 µM
GI50 (SNB-19 CNS): 5.41 µM and 2.25 µM
TGI (SNB-19 CNS): 11.9 µM and 5.41 µM
GI50 (SK-OV-3 ovarian): 5.38 µM and 4.67 µM
TGI (SK-OV-3 ovarian): 11.5 µM and 17.2 µM
GI50 (UO-31 renal): 0.856 µM and 1.49 µM
TGI (UO-31 renal): 2.62 µM and 5.9 µM
GI50 (PC-3 prostate): 2.63 µM and 2.76 µM
TGI (PC-3 prostate): 9.02 µM and 10.2 µM
GI50 (ACHN renal): 6.4 µM and 4.27 µM
TGI (ACHN renal): 13.1 µM and 16.5 µM
GI50 (NCI-H522 lung): 3.09 µM and 1.47 µM
TGI (NCI-H522 lung): 10 µM and 3.02 µM

C[C@]12CC[C@H]3[C@@H](CC=C4C[C@@H](O)CC[C@@]43C)[C@@H]1CC[C@@H]2N(CCO)CCO
TGI (UACC-257 melanoma): > 100 µM
TGI (T-47D breast): > 100 µM
TGI (K-562 leukemia): > 100 µM
TGI (HOP-92 NSCLC): > 100 µM
TGI (SNB-19 CNS): > 100 µM
TGI (SK-OV-3 ovarian): > 100 µM
TGI (UO-31 renal): > 100 µM
TGI (PC-3 prostate): > 100 µM
TGI (ACHN renal): > 100 µM
TGI (NCI-H522 lung): > 100 µM

N#Cc1ccc(NC(=O)Nc2ccc(Oc3ccc(NC(=O)Nc4ccc(C#N)cc4)cc3)cc2)cc1
GI50 (UACC-257 melanoma): 29.1 µM
TGI (UACC-257 melanoma): > 100 µM
GI50 (T-47D breast): 0.622 µM
TGI (T-47D breast): 31.6 µM
GI50 (K-562 leukemia): 2.11 µM
TGI (K-562 leukemia): > 100 µM
GI50 (HOP-92 NSCLC): 13.3 µM
TGI (HOP-92 NSCLC): 62.7 µM
GI50 (SNB-19 CNS): 20 µM
TGI (SNB-19 CNS): 88.7 µM
GI50 (SK-OV-3 ovarian): 11.1 µM
TGI (SK-OV-3 ovarian): 46.3 µM
GI50 (UO-31 renal): 22.2 µM
TGI (UO-31 renal): > 100 µM
GI50 (PC-3 prostate): 25.6 µM
TGI (PC-3 prostate): > 100 µM
GI50 (ACHN renal): 18.8 µM
TGI (ACHN renal): > 100 µM
GI50 (NCI-H522 lung): 10.9 µM
TGI (NCI-H522 lung): 95.5 µM

FC(F)(F)c1cccc(Nc2nccc(-c3cnn4nc(-c5ccccc5)ccc34)n2)c1
GI50 (UACC-257 melanoma): 15.8 µM
TGI (UACC-257 melanoma): > 25 µM
GI50 (T-47D breast): 8.33 µM
TGI (T-47D breast): > 25 µM
GI50 (K-562 leukemia): > 16.3 µM
TGI (K-562 leukemia): > 25 µM
GI50 (HOP-92 NSCLC): 3.54 µM
TGI (HOP-92 NSCLC): 10.9 µM
GI50 (SNB-19 CNS): > 17.1 µM
TGI (SNB-19 CNS): > 25 µM
GI50 (SK-OV-3 ovarian): > 22.6 µM
TGI (SK-OV-3 ovarian): > 25 µM
GI50 (UO-31 renal): 10.8 µM
TGI (UO-31 renal): > 23.1 µM
GI50 (PC-3 prostate): 8.48 µM
TGI (PC-3 prostate): > 20.8 µM
GI50 (ACHN renal): 6.71 µM
TGI (ACHN renal): > 18 µM
GI50 (NCI-H522 lung): 6.88 µM
TGI (NCI-H522 lung): > 18.5 µM

CC/C(=C(/c1ccc(O)cc1)c1ccc(OCCNC)cc1)c1ccccc1
GI50 (UACC-257 melanoma): 1.64 µM
TGI (UACC-257 melanoma): 3.15 µM
GI50 (T-47D breast): 1.34 µM
TGI (T-47D breast): 4.68 µM
GI50 (K-562 leukemia): 1.86 µM
TGI (K-562 leukemia): 4.41 µM
GI50 (HOP-92 NSCLC): 1.18 µM
TGI (HOP-92 NSCLC): 3.72 µM
GI50 (SNB-19 CNS): 3.12 µM
TGI (SNB-19 CNS): 11.9 µM
GI50 (SK-OV-3 ovarian): 3.45 µM
TGI (SK-OV-3 ovarian): 12 µM
GI50 (UO-31 renal): 1.86 µM
TGI (UO-31 renal): 4.8 µM
GI50 (PC-3 prostate): 1.95 µM
TGI (PC-3 prostate): 5.45 µM
GI50 (ACHN renal): 2.64 µM
TGI (ACHN renal): 7.52 µM
GI50 (NCI-H522 lung): 1.87 µM
TGI (NCI-H522 lung): 3.68 µM

O=C(/C(Br)=C/c1ccccc1)c1ccccc1
GI50 (UACC-257 melanoma): 1.86 µM
TGI (UACC-257 melanoma): 4.49 µM
GI50 (T-47D breast): 1.82 µM
TGI (T-47D breast): 4.71 µM
GI50 (K-562 leukemia): 2.23 µM
TGI (K-562 leukemia): 9.28 µM
GI50 (HOP-92 NSCLC): 1.87 µM
TGI (HOP-92 NSCLC): 4.28 µM
GI50 (SNB-19 CNS): 13.1 µM
TGI (SNB-19 CNS): 26.1 µM
GI50 (SK-OV-3 ovarian): 16 µM
TGI (SK-OV-3 ovarian): 34.6 µM
GI50 (UO-31 renal): 1.36 µM
TGI (UO-31 renal): 3.35 µM
GI50 (PC-3 prostate): 3.11 µM
TGI (PC-3 prostate): 10.5 µM
GI50 (ACHN renal): 1.22 µM
TGI (ACHN renal): 2.48 µM
GI50 (NCI-H522 lung): 0.396 µM
TGI (NCI-H522 lung): 2.23 µM

COc1cc(C2=NOC(c3cc(OC)c(OC)c(OC)c3)C2)ccc1OCCCCOc1cc2c(cc1OC)C(=O)N1CCC[C@H]1C=N2 (stereo partly specified)
GI50 (UACC-257 melanoma): 0.286 µM
TGI (UACC-257 melanoma): 0.727 µM
GI50 (T-47D breast): 0.481 µM
GI50 (K-562 leukemia): 1.72 µM
GI50 (HOP-92 NSCLC): 0.339 µM
TGI (HOP-92 NSCLC): 3.08 µM
GI50 (SNB-19 CNS): 1.31 µM
GI50 (SK-OV-3 ovarian): 0.446 µM
TGI (SK-OV-3 ovarian): 3.81 µM
GI50 (UO-31 renal): 0.239 µM
TGI (UO-31 renal): 0.745 µM
GI50 (PC-3 prostate): 0.347 µM
TGI (PC-3 prostate): 3.1 µM
GI50 (ACHN renal): 0.243 µM
TGI (ACHN renal): 0.523 µM
GI50 (NCI-H522 lung): 0.217 µM
TGI (NCI-H522 lung): 2.13 µM
